Assay results from PubChem BioAssay AID504489 (Sanford-Burnham Center for Chemical Genomics, 2011).
The source made the active and inactive calls.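 How the source made its calls: active means IC50 at or below 20 µM; inactive means the rest.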

Test system: 697 B-cell NF-kB luciferase, PMA/ionomycin, luminescence 16 h
Assay: NF-kB reporter signal decrease in 697 cells – B- and T-cell screen hits, luminescence, SAR follow-up (AID 504489)

IC50, inactive:
COc1cc(N)c2ncccc2c1 > 79 µM
Cc1ccc2cccc(NS(=O)(=O)c3ccccc3)c2n1 > 79 µM
Nc1cccc2cccnc12 > 79 µM
Cc1ccc2cccc(N)c2n1 > 79 µM

IC50, active:
Cc1ccc(S(=O)(=O)Nc2cccc3cccnc23)cc1 2.21 µM
COc1cc(NS(=O)(=O)c2ccccc2)c2ncccc2c1 1.29 µM
O=S(=O)(Nc1cccc2cccnc12)c1ccccc1 1.4 µM
Cc1ccc(S(=O)(=O)Nc2cccc3ccc(C)nc23)cc1 2.74 µM
COc1cc(NS(=O)(=O)c2ccc(C)cc2)c2ncccc2c1 2.58 µM
